According to ChEMBL document CHEMBL2321818, “Embellicines A and B: absolute configuration and NF-κB transcriptional inhibitory activity” (J Med Chem, 2013):

What was measured:
[1] = tested on: K562; assay: Cytotoxicity against human K562 cells assessed as cell viability after 8 to 72 hrs by trypan blue exclusion assay; type: functional, cell-based
[2] = tested on: K562; assay: Cytotoxicity against human K562 cells assessed as cell viability after 72 hrs by trypan blue exclusion assay; type: functional, cell-based; details: K562, 72 h
[3] = (§1) Inhibition of TNFalpha-induced NFkappaB activation in human K562 cells incubated for 2 hrs prior to TNFalpha induction measured after 6 hrs by luciferase reporter gene assay; type: cell-based
[4] = tested on: K562; assay: as §1; type: cell-based
[5] = tested on: K562; assay: Cytotoxicity against human K562 cells assessed as cell viability after 24 hrs by trypan blue exclusion assay; type: functional, cell-based; details: K562, 24 h
[6] = tested on: K562; assay: Cytotoxicity against human K562 cells assessed as cell viability after 48 hrs by trypan blue exclusion assay; type: functional, cell-based; details: K562, 48 h
[7] = tested on: K562; assay: Cytotoxicity against human K562 cells assessed as cell viability by trypan blue exclusion assay; type: functional, cell-based; details: TDE = time-dependent effect
[8] = tested on: K562; assay: Cytotoxicity against human K562 cells assessed as cell viability after 8 hrs by trypan blue exclusion assay; type: functional, cell-based; details: K562, 8 h
[9] = tested on: K562; assay: Cytotoxicity against human K562 cells assessed as concentration required to inhibit cell proliferation after 120 hrs by Incucyte phase contrast microscopic analysis; type: functional
[10] = Selectivity ratio of IC50 for human PBMC cells to IC50 for human K562 cells; type: cell-based; details: PBMC cells versus K562 cells, read-out: Ratio IC50
[11] = tested on: A549; assay: Cytotoxicity against human A549 cells assessed as concentration required to inhibition cell proliferation after 120 hrs by Incucyte phase contrast microscopic analysis; type: functional
[12] = tested on: PBMC; assay: Cytotoxicity against human PBMC cells assessed as cell viability after 24 hrs by trypan blue exclusion assay; type: cell-based

Row | Compound | Activity [1] | IC50 [2] [nM] | IC50 [3] [nM] | inhibition [4] | IC50 [5] [nM] | IC50 [6] [nM] | Activity [7] | IC50 [8] [nM] | INH [9] | selectivity ratio [10] | INH [11] | IC50 [12] [nM]
1 | CC1=C[C@]2(C)C(=C(C)[C@@H]3[C@@H]4C[C@H](C)C[C@H](C)[C@H]4[C@H]4Oc5ccc(cc5)C[C@@]5(O)C=C(C(=O)N5)C(=O)[C@H]2[C@@H]43)[C@@H]1C | Dose-dependent effect | 1200 | 3040 | Dose-dependent effect | 2860 | 1280 | tde | 3470 | – | – | – | –
2 | CC1=C[C@]2(C)C(=C(C)[C@@H]3[C@@H]4C[C@H](C)C[C@H](C)[C@H]4[C@H]4Oc5ccc(cc5)C[C@]5(O)NC(=O)/C(=C(/O)[C@H]2[C@@H]43)[C@@H]5O)[C@@H]1C | Dose-dependent effect | 210 | 352 | Dose-dependent effect | 323 | 250 | tde | 917 | >=0.5 uM | 40 | >=0.5 uM | 12800
